These results are taken from US10323022B2, “Pyrrolidinyl urea, pyrrolidinyl thiourea and pyrrolidinyl guanidine compounds as TrkA kinase inhibitors” (Array BioPharma Inc., priority 2011, dated 2019).

Broadly, the IC50 is the point on the concentration scale where inhibition reaches its midpoint. A high value points to weaker potency in that assay.

TrkA, sequence (P04629 33-796): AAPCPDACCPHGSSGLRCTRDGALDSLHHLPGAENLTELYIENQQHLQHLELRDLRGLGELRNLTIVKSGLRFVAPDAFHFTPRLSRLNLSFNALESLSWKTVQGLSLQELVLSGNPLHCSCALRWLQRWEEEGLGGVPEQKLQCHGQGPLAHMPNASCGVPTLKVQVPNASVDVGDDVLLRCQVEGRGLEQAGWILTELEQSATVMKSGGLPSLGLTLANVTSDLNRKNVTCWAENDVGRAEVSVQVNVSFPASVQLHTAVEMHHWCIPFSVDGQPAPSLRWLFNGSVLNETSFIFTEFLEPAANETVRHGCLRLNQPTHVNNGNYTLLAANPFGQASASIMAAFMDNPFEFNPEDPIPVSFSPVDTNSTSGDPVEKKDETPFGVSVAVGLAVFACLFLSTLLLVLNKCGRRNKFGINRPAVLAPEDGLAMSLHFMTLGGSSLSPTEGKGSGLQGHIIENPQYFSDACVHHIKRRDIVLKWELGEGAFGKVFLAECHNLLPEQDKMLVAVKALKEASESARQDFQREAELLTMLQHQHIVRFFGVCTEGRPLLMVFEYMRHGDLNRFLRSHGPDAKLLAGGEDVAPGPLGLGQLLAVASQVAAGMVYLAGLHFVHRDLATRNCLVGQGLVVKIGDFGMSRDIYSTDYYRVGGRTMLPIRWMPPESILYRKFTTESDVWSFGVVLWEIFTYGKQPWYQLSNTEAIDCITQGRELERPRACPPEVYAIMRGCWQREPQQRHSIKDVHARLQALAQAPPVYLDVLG

The assay concerns the target TrkA (Homo sapiens (Human), UniProt P04629). Kind of assay: TrkA Omnia Assay. The assay is classed as biochemical. Conditions: averaged IC50; 20 nM enzyme, 500 μM ATP, 10 μM peptide substrate. An outline of the steps:
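Recombinant TrkA (20 nM) preincubated 10 min at ambient temperature with compound, then Omnia Tyr Peptide #4 (10 μM) and ATP (500 μM) added in 25 mM MOPS pH 7.5, 5 mM MgCl2, 0.005% Triton X-100. Fluorescence (ex 360/em 485 nm) followed continuously for 70 min; IC50 from initial rates by 4- or 5-parameter logistic fit.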
Turning to `Cc1c(OCCF)nn(-c2ccccc2)c1NC(=O)N[C@H]1CN(CC(F)(F)F)C[C@@H]1c1ccccc1` [Example 266, 1-(3-(2-fluoroethoxy)-4-methyl-1-phenyl-1H-pyrazol-5-yl)-3-((3R,4S)-4-phenyl-1-(2,2,2-trifluoroethyl)pyrrolidin-3-yl)urea], the IC50 is under 100 nM.
Molecule `CCOc1nn(-c2ccccc2)c(NC(=O)N[C@H]2CN(CC(F)(F)F)C[C@@H]2c2ccccc2)c1C` [Example 267, 1-(3-ethoxy-4-methyl-1-phenyl-1H-pyrazol-5-yl)-3-((3R,4S)-4-phenyl-1-(2,2,2-trifluoroethyl)pyrrolidin-3-yl)urea] registered a half-maximal inhibitory concentration (IC50) of under 100 nM.
Next, `Cc1c(OCC#N)nn(-c2ccccc2)c1NC(=O)N[C@H]1CN(CC(F)(F)F)C[C@@H]1c1ccccc1` [Example 268, 1-(3-(cyanomethoxy)-4-methyl-1-phenyl-1H-pyrazol-5-yl)-3-((3R,4S)-4-phenyl-1-(2,2,2-trifluoroethyl)pyrrolidin-3-yl)urea]: under 100 nM; `Cc1c(-c2cnn(C)c2)nn(-c2ccccc2)c1NC(=O)N[C@H]1CN(CC(F)(F)F)C[C@@H]1c1ccccc1` [Example 269, 1-(1′,4-dimethyl-1-phenyl-1H,1′H-3,4′-bipyrazol-5-yl)-3-((3R,4S)-4-phenyl-1-(2,2,2-trifluoroethyl)pyrrolidin-3-yl)urea]: under 100 nM.
Next, `Cc1c(OC[C@H]2COC(C)(C)O2)nn(-c2ccccc2)c1NC(=O)N[C@H]1CN(CC(F)(F)F)C[C@@H]1c1ccccc1` [Example 271, 1-(3-(((S)-2,2-dimethyl-1,3-dioxolan-4-yl)methoxy)-4-methyl-1-phenyl-1H-pyrazol-5-yl)-3-((3R,4S)-4-phenyl-1-(2,2,2-trifluoroethyl)pyrrolidin-3-yl)urea]: under 100 nM.
As for `Cc1c(OC[C@H](O)CO)nn(-c2ccccc2)c1NC(=O)N[C@H]1CN(CC(F)(F)F)C[C@@H]1c1ccccc1` [Example 272, 1-(3-((R)-2,3-dihydroxvpropoxy)-4-methyl-1-phenyl-1H-pyrazol-5-yl)-3-((3R,4S)-4-phenyl-1-(2,2,2-trifluoroethyl)pyrrolidin-3-yl)urea], the figure is under 100 nM.
`C[C@@H]1C(NC(=O)Nc2c3c(nn2-c2ccccc2)CCC3)[C@H](c2ccccc2)CN1CC(F)(F)F` (stereo partly drawn) [Example 273, (R,S)1-((2α,3β,4α)-2-methyl-4-phenyl-1-(2,2,2-trifluoroethyl)pyrrolidin-3-yl)-3-(2-phenyl-2,4,5,6-tetrahydrocyclopenta[c]pyrazol-3-yl)urea] registered an IC50 of 100 to 1000 nM.
Molecule `C[C@H]1[C@@H](c2ccccc2)C(NC(=O)Nc2c3c(nn2-c2ccccc2)CCC3)CN1CC(F)(F)F` (stereo partly drawn) [Example 274, (R,S)-1-((3β,4α,5α)-5-methyl-4-phenyl-1-(2,2,2-trifluoroethyl)pyrrolidin-3-yl)-3-(2-phenyl-2,4,5,6-tetrahydrocyclopenta[c]pyrazol-3-yl)urea] had an IC50 of 100 to 1000 nM.
As to `CCOc1nn(-c2ccccc2)c(NC(=O)N[C@@H]2CN([C@@H](CO)C(F)(F)F)C[C@H]2c2ccc(F)c(F)c2)c1C` [Example 275, 1-((3S,4R)-4-(3,4-difluorophenyl)-1-((S)-1,1,1-trifluoro-3-hydroxypropan-2-yl)pyrrolidin-3-yl)-3-(3-ethoxv-4-methyl-1-phenyl-1H-pyrazol-5-yl)urea], the IC50 is 100 to 1000 nM.
For `CCOc1nn(-c2ccccc2)c(NC(=O)N[C@@H]2CN([C@@H](COC)C(F)(F)F)C[C@H]2c2ccc(F)c(F)c2)c1C` [Example 276, 1-((3S,4R)-4-(3,4-difluorophenyl)-1-((S)-1,1,1-trifluoro-3-methoxypropan-2-yl)pyrrolidin-3-yl)-3-(3-ethoxv-4-methyl-1-phenyl-1H-pyrazol-5-yl)urea], the IC50 is under 100 nM.
Molecule `COC[C@H](N1C[C@@H](NC(=O)Nc2c(C)c(OC[C@H](C)O)nn2-c2ccccc2)[C@H](c2ccc(F)c(F)c2)C1)C(F)(F)F` [Example 277, 1-((3S,4R)-4-(3,4-difluorophenyl)-1-((S)-1,1,1-trifluoro-3-methoxypropan-2-yl)pyrrolidin-3-yl)-3-(3-((S)-2-hydroxypropoxy)-4-methyl-1-phenyl-1H-pyrazol-5-yl)urea] yielded an IC50 of under 100 nM.
`COC[C@@H](N1C[C@@H](NC(=O)Nc2c(Cl)c(-c3cnn(C)c3)nn2-c2ccccc2)[C@H](c2ccc(F)c(F)c2)C1)C(F)(F)F` [Example 278, 1-(4-chloro-1′-methyl-1-phenyl-1H, 1′H-3,4′-bipyrazol-5-yl)-3-((3S,4R)-4-(3,4-difluorophenyl)-1-((R)-1,1,1-trifluoro-3-methoxypropan-2-yl)pyrrolidin-3-yl)urea] had an IC50 of under 100 nM.
Next, `COC[C@@H](N1C[C@@H](NC(=O)Nc2c(C)c(OC[C@H](C)O)nn2-c2ccccc2)[C@H](c2ccc(F)c(F)c2)C1)C(F)(F)F` [Example 279, 1-((3S,4R)-4-(3,4-difluorophenyl)-1-((R)-1,1,1-trifluoro-3-methoxypropan-2-yl)pyrrolidin-3-yl)-3-(3-((S)-2-hydroxypropoxy)-4-methyl-1-phenyl-1H-pyrazol-5-yl)urea]: 100 to 1000 nM; `COCCCc1nn(-c2ccccc2)c(NC(=O)N[C@@H]2CN(CCOC)C[C@H]2c2cc(F)cc(F)c2)c1C` [Example 281, 1-((3S,4R)-4-(3,5-difluorophenyl)-1-(2-methoxyethyl)pyrrolidin-3-yl)-3-(3-(3-methoxypropyl)-4-methyl-1-phenyl-1H-pyrazol-5-yl)urea]: under 100 nM.
Next, `COCCN1C[C@@H](NC(=O)Nc2c(C)c(C(F)(F)CO)nn2-c2ccccc2)[C@H](c2ccc(F)c(F)c2)C1` [Example 282, 1-(3-(1,1-difluoro-2-hydroxyethyl)-4-methyl-1-phenyl-1H-pyrazol-5-yl)-3-((3S,4R)-4-(3,4-difluorophenyl)-1-(2-methoxyethyl)pyrrolidin-3-yl)urea]: under 100 nM.
Next, `COCCN1C[C@@H](NC(=O)Nc2c(C)c(C(F)(F)CO)nn2-c2ccccc2)[C@H](c2cc(F)cc(F)c2)C1` [Example 283, 1-(3-(1,1-difluoro-2-hydroxyethyl)-4-methyl-1-phenyl-1H-pyrazol-5-yl)-3-((3S,4R)-4-(3,5-difluorophenyl)-1-(2-methoxyethyl)pyrrolidin-3-yl)urea]: under 100 nM; `COCCN1C[C@@H](NC(=O)Nc2c(C)c(C(F)(F)CO)nn2-c2ccccc2)[C@H](c2ccc(F)cc2)C1` [Example 284, 1-(3-(1,1-difluoro-2-hydroxyethyl)-4-methyl-1-phenyl-1H-pyrazol-5-yl)-3-((3S,4R)-4-(4-fluorophenyl)-1-(2-methoxyethyl)pyrrolidin-3-yl)urea]: under 100 nM; `COCCN1C[C@@H](NC(=O)Nc2cc(C(F)(F)CO)nn2-c2ccccc2)[C@H](c2ccc(F)c(F)c2)C1` [Example 285, 1-(3-(1,1-difluoro-2-hydroxyethyl)-1-phenyl-1H-pyrazol-5-yl)-3-((3S,4R)-4-(3,4-difluorophenyl)-1-(2-methoxyethyl)pyrrolidin-3-yl)urea]: under 100 nM.
The molecule `COCCN1C[C@@H](NC(=O)Nc2c(C)c(CCO)nn2-c2ccccc2)[C@H](c2cc(F)cc(F)c2)C1` [Example 286, 1-((3S,4R)-4-(3,5-difluorophenyl)-1-(2-methoxyethyl)pyrrolidin-3-yl)-3-(3-(2-hydroxyethyl)-4-methyl-1-phenyl-1H-pyrazol-5-yl)urea] showed an IC50 of under 100 nM.
As for `COCCN1C[C@@H](NC(=O)Nc2c(C)c(CCO)nn2-c2ccccc2)[C@H](c2ccc(F)cc2)C1` [Example 287, 1-((3S,4R)-4-(4-fluorophenyl)-1-(2-methoxyethyl)pyrrolidin-3-yl)-3-(3-(2-hydroxyethyl)-4-methyl-1-phenyl-1H-pyrazol-5-yl)urea], the figure is under 100 nM; as for `COCCN1C[C@@H](NC(=O)Nc2c(C)c(CC(C)(C)O)nn2-c2ccccc2)[C@H](c2ccc(F)c(F)c2)C1` [Example 288, 1-((3S,4R)-4-(3,4-difluorophenyl)-1-(2-methoxyethyl)pyrrolidin-3-yl)-3-(3-(2-hydroxy-2-methylpropyl)-4-methyl-1-phenyl-1H-pyrazol-5-yl)urea], under 100 nM.
Next, `COCCN1C[C@@H](NC(=O)Nc2c(C)c(C[C@H](C)O)nn2-c2ccccc2)[C@H](c2ccc(F)c(F)c2)C1` [Example 289, 1-((3S,4R)-4-(3,4-difluorophenyl)-1-(2-methoxyethyl)pyrrolidin-3-yl)-3-(3-((S)-2-hydroxypropyl)-4-methyl-1-phenyl-1H-pyrazol-5-yl)urea]: under 100 nM; `COCCN1C[C@@H](NC(=O)Nc2c(C)c(C[C@@H](C)O)nn2-c2ccccc2)[C@H](c2ccc(F)c(F)c2)C1` [Example 290, 1-((3S,4R)-4-(3,4-difluorophenyl)-1-(2-methoxyethyl)pyrrolidin-3-yl)-3-(3-((R)-2-hydroxypropyl)-4-methyl-1-phenyl-1H-pyrazol-5-yl)urea]: under 100 nM.
`CCOC(=O)c1nn(-c2ccccc2)c(NC(=O)N[C@@H]2CN(CCOC)C[C@H]2c2ccc(F)c(F)c2)c1C` [Example 291, ethyl 5-(3-((3S,4R)-4-(3,4-difluorophenyl)-1-(2-methoxyethyl)pyrrolidin-3-yl)ureido)-4-methyl-1-phenyl-1H-pyrazole-3-carboxylate] came in with an IC50 of under 100 nM.
Next, `CNC(=O)c1nn(-c2ccccc2)c(NC(=O)N[C@@H]2CN(CCOC)C[C@H]2c2ccc(F)cc2)c1C` [Example 292, 5-(3-((3S,4R)-4-(4-fluorophenyl)-1-(2-methoxyethyl)pyrrolidin-3-yl)ureido)-N,4-dimethyl-1-phenyl-1H-pyrazole-3-carboxamide]: under 100 nM.
Next, `COCCN1C[C@@H](NC(=O)Nc2c(C)c(-c3nnc(C)o3)nn2-c2ccccc2)[C@H](c2ccc(F)c(F)c2)C1` [Example 297, 1-((3S,4R)-4-(3,4-difluorophenyl)-1-(2-methoxyethyl)pyrrolidin-3-yl)-3-(4-methyl-3-(5-methyl-1,3,4-oxadiazol-2-yl)-1-phenyl-1H-pyrazol-5-yl)urea]: under 100 nM.
